Assay results from PMC11331127 (Proceedings of the National Academy of Sciences of the …, 2024).

Columns and labels:
Format in all cases: cell-based
Cx26 [1] = target: T1, Cx26 (Homo sapiens, UniProt P29033); assay: dye uptake rate in Xenopus oocytes; conditions: transport (dye permeation); resting membrane potential
Cx30 = Cx30 (Homo sapiens, UniProt O95452); assay: dye uptake rate in Xenopus oocytes; conditions: transport (dye permeation); resting membrane potential
Cx26 [2] = target: Cx26 (Homo sapiens, UniProt P29033, INS2A); assay: dye uptake rate in Xenopus oocytes; conditions: transport (dye permeation); resting membrane potential
Cx26 [3] = target: T1, Cx26; assay: inhibition of DAPI uptake in Xenopus oocytes; conditions: competitive versus DAPI; resting membrane potential

Cx30, sequence (O95452 whole entry): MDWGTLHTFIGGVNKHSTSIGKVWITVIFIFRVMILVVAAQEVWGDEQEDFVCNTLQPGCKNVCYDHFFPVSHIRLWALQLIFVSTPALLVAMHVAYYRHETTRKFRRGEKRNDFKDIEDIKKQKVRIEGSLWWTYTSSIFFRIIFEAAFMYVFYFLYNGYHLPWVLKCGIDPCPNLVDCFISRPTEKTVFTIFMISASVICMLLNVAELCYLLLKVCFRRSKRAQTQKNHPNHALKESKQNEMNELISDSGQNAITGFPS

Substance	Km (Cx26 [1]) [µM]	Km (Cx30) [µM]	Km (Cx26 [2]) [µM]	Ki (Cx26 [3]) [µM]
DAPI	90.1 ± 22			
ethidium		6.6 ± 2	88.6 ± 17.4	~16.5
